The results in this text go back to US20260285866A1, “MODULATORS OF TRPML, THEIR COMPOSITIONS AND METHODS OF USE” (Caraway Therapeutics, Inc., priority 2024, published 2026).

What all share (assay type): cell-based
One test addresses T1, Human TRPML2 (Homo sapiens, UniProt Q8IZK6).
T1 construct: expressed in transfected cells
T1 sequence (Q8IZK6 1-566): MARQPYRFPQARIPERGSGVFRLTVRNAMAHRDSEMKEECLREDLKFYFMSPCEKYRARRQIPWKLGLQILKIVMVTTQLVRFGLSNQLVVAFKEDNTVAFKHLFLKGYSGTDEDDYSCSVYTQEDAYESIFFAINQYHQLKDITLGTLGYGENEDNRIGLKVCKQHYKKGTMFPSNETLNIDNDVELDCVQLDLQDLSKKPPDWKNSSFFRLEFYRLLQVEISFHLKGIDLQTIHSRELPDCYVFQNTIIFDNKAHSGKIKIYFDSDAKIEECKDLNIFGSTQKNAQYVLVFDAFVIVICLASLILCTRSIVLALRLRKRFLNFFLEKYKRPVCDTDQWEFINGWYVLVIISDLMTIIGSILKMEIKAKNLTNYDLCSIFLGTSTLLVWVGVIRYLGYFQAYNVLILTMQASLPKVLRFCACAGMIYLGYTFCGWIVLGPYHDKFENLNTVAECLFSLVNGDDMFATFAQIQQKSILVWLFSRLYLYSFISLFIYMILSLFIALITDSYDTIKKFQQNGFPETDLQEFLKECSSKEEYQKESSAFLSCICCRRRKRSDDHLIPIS
In words: Fluorescent TRPML2 assay (as for TRPML1). To be noted: fluorescent calcium assay as for TRPML1, TRPML2 subtype. Here is the method:
(§1) HEK-293 Trex cells were stably transfected with a construct consisting of the human coding sequence for TRPML1 cloned into the tet-inducible plasmid pCDNA5 T/O. Mutations were introduced into the TRPML1 sequence to facilitate expression on the cell surface (Silvia Vergarajauregui, Rosa Puertollano Traffic. 2006 March; 7(3): 337-353). Briefly, the cells are cultured in 150 mm round tissue culture dishes containing 20 mL of media. The day before the assay the cells are rinsed with DPBS-Ca-Mg and then treated briefly with Trypsin-EDTA. The Trypsin-EDTA is diluted with growth media, and cells are counted. 38×10^6 cells are re-plated into 150 mm round tissue culture dishes in media containing 0.5 μg/mL doxycycline to induce expression of hTRPML1.
(§2) The day of the experiment cells are lifted from the plates as above and collected by centrifugation. The cells are then suspended in dye loading buffer consisting of Ringer's solution supplemented with 0.1% Pluronic Acid and 1 micromolar Fluo4-AM dye. Cells are loaded for ~60 minutes in the dark with occasional mixing. The cells are collected by centrifugation, the loading media aspirated, and the cells resuspended in 25 mL Ringer's solution and incubated ~60 minutes in the dark. The cells are again collected by centrifugation, rinsed in Ringer's Solution and resuspended to 0.2×10^6 cells/mL in modified Ringer's solution containing 10 mM calcium.
(§3) Compounds are dissolved to a concentration of 10 millimolar with DMSO. Compound plates are created by dispensing compounds into 384 well black wall clear bottom plates (Greiner 781091). Positive and negative controls are included on each plate. Typically, different amounts of each compound are tested ranging from 100 nanoMoles (20 micromolar final concentration) decreasing in half-log steps to 31 picoMoles (6 nanomolar final concentration). Each concentration is typically tested in triplicate.
(§4) 50 microliters of dye-loaded cells are dispensed into each well of the compound assay plate created above. The fluorescence in each well is then determined with an excitation wavelength of 480 nm and an emission wavelength of 540 nm using either a Molecular Devices SpectraMax multimode plate reader or a Hamamatsu FDSS/uCell plate imager.
(§5) The resulting fluorescence for each well is exported as an ascii file and loaded into our LIMS for analysis. The percent activity of each compound at each concentration is determined by comparison to the positive and negative control wells included in each plate.
(§6) Assays for TRPML2 and TRPML3 were performed as above for TRPML1, by substituting the appropriate TRPML2 or TRPML3 subtype for the TRPML1.
(§7) EC50 values were calculated using a non-linear regression of Prism. In the table, “A” indicates an EC50 of less than 100 nM, “B” indicates an EC50 range from 100 nM to 500 nM: “C” indicates an EC50 range from 500 nM to 2 μM; and “D” indicates an EC50 greater than 2 μM.

The target in the next test is Human TRPML1 (Homo sapiens, UniProt Q9GZU1, L15A/L16A/L577A/L578A). The experiment in a line: Fluorescent TRPML1 assay (Fluo4-AM, HEK-293 Trex cells expressing hTRPML1). To be noted: fluorescent calcium assay, doxycycline-induced hTRPML1. Here is the method: Example 27. Fluorescent TRPML Assays
as §1, §2, §3, §4, §5, §7

A further test addresses T2, Human TRPML3 (Homo sapiens, UniProt Q8TDD5).
T2 construct: expressed in transfected cells
T2 sequence (Q8TDD5 1-553): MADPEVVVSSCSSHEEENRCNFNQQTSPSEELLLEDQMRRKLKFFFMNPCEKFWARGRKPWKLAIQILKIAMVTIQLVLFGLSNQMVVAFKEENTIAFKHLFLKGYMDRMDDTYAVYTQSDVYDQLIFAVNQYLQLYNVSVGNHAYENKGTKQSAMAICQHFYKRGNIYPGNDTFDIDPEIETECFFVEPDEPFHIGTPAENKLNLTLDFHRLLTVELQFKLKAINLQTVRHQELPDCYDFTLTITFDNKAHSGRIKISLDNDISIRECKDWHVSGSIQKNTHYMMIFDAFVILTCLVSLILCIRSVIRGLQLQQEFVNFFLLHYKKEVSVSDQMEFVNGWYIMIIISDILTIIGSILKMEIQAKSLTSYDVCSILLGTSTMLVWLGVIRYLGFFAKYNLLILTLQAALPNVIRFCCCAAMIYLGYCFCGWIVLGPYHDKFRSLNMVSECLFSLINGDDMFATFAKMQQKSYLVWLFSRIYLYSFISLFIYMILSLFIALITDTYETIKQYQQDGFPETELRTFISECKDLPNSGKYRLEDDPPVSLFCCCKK
The experiment in a line: Fluorescent TRPML3 assay (as for TRPML1). To be noted: fluorescent calcium assay as for TRPML1, TRPML3 subtype. The procedure:
as §1, §2, §3, §4, §5, §6, §7

SMILES strings stand for the structures.

Sequence of Human TRPML1 (Q9GZU1 whole entry L15A/L16A/L577A/L578A): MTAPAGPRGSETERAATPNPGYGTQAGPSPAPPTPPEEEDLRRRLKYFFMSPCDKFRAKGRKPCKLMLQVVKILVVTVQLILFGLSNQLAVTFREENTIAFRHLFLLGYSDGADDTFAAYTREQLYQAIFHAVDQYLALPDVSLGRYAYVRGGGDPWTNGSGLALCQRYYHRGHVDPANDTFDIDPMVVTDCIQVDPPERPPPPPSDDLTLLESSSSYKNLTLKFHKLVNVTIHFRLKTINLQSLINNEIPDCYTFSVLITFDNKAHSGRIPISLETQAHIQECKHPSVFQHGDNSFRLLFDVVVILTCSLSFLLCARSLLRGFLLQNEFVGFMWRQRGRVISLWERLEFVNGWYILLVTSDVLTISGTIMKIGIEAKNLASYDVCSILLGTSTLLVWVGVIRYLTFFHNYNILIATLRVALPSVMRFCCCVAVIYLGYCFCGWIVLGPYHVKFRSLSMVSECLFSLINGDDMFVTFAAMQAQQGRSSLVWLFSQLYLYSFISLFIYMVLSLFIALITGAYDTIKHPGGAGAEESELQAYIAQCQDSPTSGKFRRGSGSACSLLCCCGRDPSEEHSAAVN

As for `C[C@@H]1CN(c2ncnc3c2c(-c2ccccc2F)cn3-c2cc(C#N)ccn2)[C@@H](C)CN1C(=O)C(C)(C)OCC(F)(F)F` [Compound 165, 2-(4-((2S,5R)-2,5-dimethyl-4-(2-methyl-2-(2,2,2-trifluoroethoxy)propanoyl)piperazin-1-yl)-5-(2-fluorophenyl)-7H-pyrrolo[2,3-d]pyrimidin-7-yl)isonicotinonitrile], the EC50 at Human TRPML2, on Human TRPML1 and at Human TRPML3 was below 100 nM throughout.

For the compound `CCOC(C)(C)C(=O)N1C[C@H](C)N(c2ncnc3c2c(-c2ccccc2)cn3-c2cc(C#N)ccn2)C[C@H]1C` [Compound 170, 2-(4-((2S,5R)-4-(2-ethoxy-2-methylpropanoyl)-2,5-dimethylpiperazin-1-yl)-5-phenyl-7H-pyrrolo[2,3-d]pyrimidin-7-yl)isonicotinonitrile], the EC50 is 100 to 500 nM at Human TRPML2, below 100 nM at Human TRPML1 and below 100 nM on Human TRPML3.

For the compound `C[C@@H]1CN(c2ncnc3c2c(-c2ccccc2)cn3-c2cc(C#N)ccn2)[C@@H](C)CN1C(=O)CC(O)(C(F)(F)F)C(F)(F)F` [Compound 161, 2-(4-((2S,5R)-2,5-dimethyl-4-(4,4,4-trifluoro-3-hydroxy-3-(trifluoromethyl)butanoyl)piperazin-1-yl)-5-phenyl-7H-pyrrolo[2,3-d]pyrimidin-7-yl)isonicotinonitrile], the EC50 at Human TRPML2 was 500 to 2000 nM; at Human TRPML1, 100 to 500 nM; at Human TRPML3, below 100 nM.

In the case of `C[C@@H]1CN(c2ncnc3c2c(-c2ccncc2F)cn3-c2cc(C#N)ccn2)[C@@H](C)CN1C(=O)C(C)(C)O` [Compound 146, 2-(5-(3-fluoropyridin-4-yl)-4-((2S,5R)-4-(2-hydroxy-2-methylpropanoyl)-2,5-dimethylpiperazin-1-yl)-7H-pyrrolo[2,3-d]pyrimidin-7-yl)isonicotinonitrile], the concentration for a half-maximal effect (EC50) is above 2000 nM on Human TRPML2, 100 to 500 nM at Human TRPML1 and 500 to 2000 nM at Human TRPML3.

As for `COC1(C(=O)N2C[C@H](C)N(c3ncnc4c3c(-c3ccccc3F)cn4-c3cc(C#N)ccn3)C[C@H]2C)COC1` [Compound 166, 2-(5-(2-fluorophenyl)-4-((2S,5R)-4-(3-methoxyoxetane-3-carbonyl)-2,5-dimethylpiperazin-1-yl)-7H-pyrrolo[2,3-d]pyrimidin-7-yl)isonicotinonitrile], the values for the concentration giving a half-maximal response (EC50) on Human TRPML2, on Human TRPML1 and on Human TRPML3 were 500 to 2000 nM, below 100 nM and below 100 nM, respectively.

Consider `C[C@@H]1CN(c2ncnc3c2c(-c2ccccc2F)cn3-c2cc(C#N)ccn2)[C@@H](C)CN1C(=O)C(C)(O)CO` (stereo partly drawn) [Compound 167, 2-(4-((2S,5R)-4-(2,3-dihydroxy-2-methylpropanoyl)-2,5-dimethylpiperazin-1-yl)-5-(2-fluorophenyl)-7H-pyrrolo[2,3-d]pyrimidin-7-yl)isonicotinonitrile], for which the EC50 on Human TRPML1 was in the range of 100 to 500 nM; at Human TRPML3, 500 to 2000 nM.

In the case of `C[C@@H]1CN(c2ncnc3c2c(-c2ccccc2)cn3-c2cc(F)ccn2)[C@@H](C)CN1C(=O)C(C)(C)O` [Compound 106, 1-((2R,5S)-4-(7-(4-fluoropyridin-2-yl)-5-phenyl-7H-pyrrolo[2,3-d]pyrimidin-4-yl)-2,5-dimethylpiperazin-1-yl)-2-hydroxy-2-methylpropan-1-one], the concentration giving a half-maximal response (EC50) at Human TRPML1 was 100 to 500 nM; on Human TRPML3, above 2000 nM.

`C[C@@H]1CN(c2ncnc3c2c(-c2ccncc2)cn3-c2cc(C#N)ccn2)[C@@H](C)CN1C(=O)C1(O)CC1` [Compound 149, 2-(4-((2S,5R)-4-(1-hydroxycyclopropane-1-carbonyl)-2,5-dimethylpiperazin-1-yl)-5-(pyridin-4-yl)-7H-pyrrolo[2,3-d]pyrimidin-7-yl)isonicotinonitrile]: the EC50 at Human TRPML1 was 500 to 2000 nM; on Human TRPML3 it was above 2000 nM.

For the compound `C[C@@H]1CN(c2ncnc3c2c(-c2ccccc2)cn3-c2cc(C#N)ccn2)[C@@H](C2CC2)CN1C(=O)C(C)(C)O` [Compound 119, 2-(4-((2S,5R)-2-cyclopropyl-4-(2-hydroxy-2-methylpropanoyl)-5-methylpiperazin-1-yl)-5-phenyl-7H-pyrrolo[2,3-d]pyrimidin-7-yl)isonicotinonitrile], the EC50 was in the range of 100 to 500 nM on Human TRPML1 and 500 to 2000 nM on Human TRPML3.

In the case of `CC(C)[C@H]1CN(C(=O)C(C)(C)O)CCN1c1ncnc2c1c(-c1ccccc1)cn2-c1cc(C#N)ccn1` [Compound 112, (S)-2-(4-(4-(2-hydroxy-2-methylpropanoyl)-2-isopropylpiperazin-1-yl)-5-phenyl-7H-pyrrolo[2,3-d]pyrimidin-7-yl)isonicotinonitrile], the half-maximal effective concentration (EC50) on Human TRPML1 and on Human TRPML3 was 500 to 2000 nM throughout.

`C[C@@H]1CN(c2ncnc3c2c(-c2ccncc2)cn3-c2cc(F)ccn2)[C@@H](C)CN1C(=O)C(C)(C)O` [Compound 136, 1-((2R,5S)-4-(7-(4-fluoropyridin-2-yl)-5-(pyridin-4-yl)-7H-pyrrolo[2,3-d]pyrimidin-4-yl)-2,5-dimethylpiperazin-1-yl)-2-hydroxy-2-methylpropan-1-one]: the 50% effective concentration (EC50) on Human TRPML1 is 500 to 2000 nM; at Human TRPML3, above 2000 nM.

Turning to `C[C@@H]1CN(c2ncnc3c2c(-c2cnco2)cn3-c2cc(C#N)ccn2)[C@@H](C)CN1C(=O)C(C)(C)O` [Compound 127, 2-(4-((2S,5R)-4-(2-hydroxy-2-methylpropanoyl)-2,5-dimethylpiperazin-1-yl)-5-(oxazol-5-yl)-7H-pyrrolo[2,3-d]pyrimidin-7-yl)isonicotinonitrile], the concentration giving a half-maximal response (EC50) on Human TRPML1 was 100 to 500 nM; at Human TRPML3, above 2000 nM.

Regarding `C[C@H]1CN(C(=O)C2(O)CCC2)CCN1c1ncnc2c1c(-c1ccccc1F)cn2-c1cc(C#N)ccn1` [Compound 117, (S)-2-(5-(2-fluorophenyl)-4-(4-(1-hydroxycyclobutane-1-carbonyl)-2-methylpiperazin-1-yl)-7H-pyrrolo[2,3-d]pyrimidin-7-yl)isonicotinonitrile], the EC50 on Human TRPML1 and at Human TRPML3 was 500 to 2000 nM each time.

In the case of `C[C@@H]1CN(c2ncnc3c2c(N2CCC2)cn3-c2cc(C#N)ccn2)[C@@H](C)CN1C(=O)C(C)(C)O` [Compound 107, 2-(5-(azetidin-1-yl)-4-((2S,5R)-4-(2-hydroxy-2-methylpropanoyl)-2,5-dimethylpiperazin-1-yl)-7H-pyrrolo[2,3-d]pyrimidin-7-yl)isonicotinonitrile], the EC50 at Human TRPML1 was 100 to 500 nM; on Human TRPML3, above 2000 nM.

The term EC50 denotes the concentration at which the effect is half-maximal.
